Assay [1] deals with isolated bladder smooth muscle cells. The experiment in a line: Patch-clamp of isolated bladder smooth muscle cells (M-current activity). In kind it is cell-based, rat. The protocol:
(§1) Using quantitative rtPCR, the expression of KCNQ1, KCNQ3 and KCNQ5 potassium channels was identified in the rat urinary bladder. […] To further probe M-current activity in the bladder, retigabine (10 μM, M-current agonist) was tested in isolated bladder smooth muscle cells using standard patch-clamp techniques. […] This hyperpolarization was reversed by the addition of linopirdine (50 μM an M-current antagonist) to the tissue bath. […] This relaxation was reversed by the M-current blockers linopirdine and XE-991.
A general note: In patch-clamp work, channel activity is measured electrically.

The subject of assay [2] is isolated carbachol contracted rat bladder strips. The assay is described as follows: Relaxation of isolated carbachol contracted rat bladder strips. The settings on record: for effect on retigabine-induced relaxation of bladder strips: M-current blockers added after retigabine. The protocol:
as §1

Assay [3] relates to isolated precontracted guinea pig ileum. The experiment in a line: Isolated precontracted guinea pig ileum preparations in tissue bath. The protocol: Following the procedures of the previous example, the effects of retigabine on isolated precontracted guinea pig ileum preparations were studied. Sections of ileum were isolated from male guinea pigs and suspended in a tissue bath. One end of the tissue was anchored to the bottom of the bath, and the other end to a force transducer. Tissues were contracted with either 20 mM KCl or 200 nM carbachol. The KCNQ channel agonist retigabine was added to the tissue baths in increasing concentrations.

Assay [4] deals with T1, KCNQ2/3 potassium channels (Homo sapiens, UniProt O43525+O43526).
T1 construct: host or cells: oocytes (heterologous expression, as described in the cited article)
The settings on record: oocytes; cited from earlier work.

The term IC50 denotes the concentration at which inhibition is half-maximal.

The structures appear in SMILES notation.

T1 sequence (O43526 whole entry): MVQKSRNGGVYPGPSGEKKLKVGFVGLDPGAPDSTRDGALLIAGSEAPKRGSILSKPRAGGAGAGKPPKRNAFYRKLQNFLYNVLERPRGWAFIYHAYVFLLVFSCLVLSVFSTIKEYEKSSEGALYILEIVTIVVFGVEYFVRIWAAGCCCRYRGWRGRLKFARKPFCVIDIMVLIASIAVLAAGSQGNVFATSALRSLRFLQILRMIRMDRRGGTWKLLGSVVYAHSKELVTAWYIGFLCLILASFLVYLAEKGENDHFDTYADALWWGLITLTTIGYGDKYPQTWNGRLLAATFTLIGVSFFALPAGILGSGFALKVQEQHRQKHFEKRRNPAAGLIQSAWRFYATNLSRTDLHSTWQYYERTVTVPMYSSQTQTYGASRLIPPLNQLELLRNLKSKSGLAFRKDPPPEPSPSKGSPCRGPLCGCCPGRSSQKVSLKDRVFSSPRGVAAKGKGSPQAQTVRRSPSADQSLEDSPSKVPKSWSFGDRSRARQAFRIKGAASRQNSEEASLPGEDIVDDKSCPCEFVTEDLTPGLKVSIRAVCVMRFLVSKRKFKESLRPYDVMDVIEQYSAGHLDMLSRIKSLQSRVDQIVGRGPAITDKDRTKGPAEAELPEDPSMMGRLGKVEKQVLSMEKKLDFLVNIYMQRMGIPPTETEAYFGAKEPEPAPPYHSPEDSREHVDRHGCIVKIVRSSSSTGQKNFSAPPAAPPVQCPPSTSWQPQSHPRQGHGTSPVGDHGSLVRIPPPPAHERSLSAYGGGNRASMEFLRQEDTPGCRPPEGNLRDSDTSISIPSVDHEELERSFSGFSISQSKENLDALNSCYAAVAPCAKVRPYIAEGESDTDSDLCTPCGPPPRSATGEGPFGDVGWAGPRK
T1 sequence (O43525 whole entry): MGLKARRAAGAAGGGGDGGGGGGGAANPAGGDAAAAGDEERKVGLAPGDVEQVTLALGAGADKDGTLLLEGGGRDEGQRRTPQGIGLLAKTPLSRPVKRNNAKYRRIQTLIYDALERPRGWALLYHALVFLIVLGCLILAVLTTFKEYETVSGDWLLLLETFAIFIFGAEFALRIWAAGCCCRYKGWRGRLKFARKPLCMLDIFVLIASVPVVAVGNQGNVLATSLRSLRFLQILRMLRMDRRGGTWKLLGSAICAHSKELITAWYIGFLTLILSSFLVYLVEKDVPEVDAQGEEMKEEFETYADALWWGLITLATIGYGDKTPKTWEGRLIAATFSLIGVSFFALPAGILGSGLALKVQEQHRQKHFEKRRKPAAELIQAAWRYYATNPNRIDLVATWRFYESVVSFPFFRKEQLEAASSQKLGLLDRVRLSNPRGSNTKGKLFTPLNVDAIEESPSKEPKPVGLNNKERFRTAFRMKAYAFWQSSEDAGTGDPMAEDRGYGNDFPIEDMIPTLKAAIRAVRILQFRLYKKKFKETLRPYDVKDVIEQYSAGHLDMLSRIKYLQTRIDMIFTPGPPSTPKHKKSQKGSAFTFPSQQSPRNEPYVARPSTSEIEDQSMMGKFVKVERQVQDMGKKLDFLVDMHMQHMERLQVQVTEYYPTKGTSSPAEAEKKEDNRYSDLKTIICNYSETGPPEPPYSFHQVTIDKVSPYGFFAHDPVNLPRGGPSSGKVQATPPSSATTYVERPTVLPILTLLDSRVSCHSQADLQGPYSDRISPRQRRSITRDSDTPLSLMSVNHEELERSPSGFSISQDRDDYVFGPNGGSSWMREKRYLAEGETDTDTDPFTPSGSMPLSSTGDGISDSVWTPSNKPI

On to `CCOC(=O)Nc1ccc(NCc2ccc(F)cc2)cc1N` [retigabine, N-[2-amino-4-(4-fluorobenzylamino)-phenyl]carbamic acid ethyl ester], for which the membrane hyperpolarization in assay [1] (retigabine 10 μM, n=5) turned out to be 17.8±3.0 mV. The “outward current insensitive to iberiotoxin” value in assay [1] (retigabine 10 μM, standard patch-clamp) is “significantly increased”. Also, the IC50 in assay [2] (Rattus norvegicus, read-out: IC50 of relaxation of carbachol contracted bladder strips) was 3.5 ± 0.9 µM. Moreover, the “inhibition of contraction of ileum” value in assay [3] (tissues contracted with 20 mM KCl or 200 nM carbachol, increasing concentrations) is given as “concentration-dependent inhibition of contraction”. Further, in assay [4], the channel deactivation result was “slows channel deactivation”, the “rate of channel activation” value is given as “increases the rate of channel activation” and the “voltage dependence of channel activation” value is listed as “shifts the voltage dependence of channel activation to more hyperpolarized membrane potentials”.
On to `O=C1N(c2ccccc2)c2ccccc2C1(Cc1ccncc1)Cc1ccncc1` [linopirdine], for which the “effect on retigabine-induced hyperpolarization” value in assay [1] (linopirdine 50 μM added to the tissue bath) is on record as “reversed”. Besides, in assay [2], the “effect on retigabine-induced relaxation of bladder strips” value is listed as “reversed”.
With `O=C1c2ccccc2C(Cc2ccncc2)(Cc2ccncc2)c2ccccc21` [XE-991], in assay [2], the “effect on retigabine-induced relaxation of bladder strips” value was “reversed”. Also, in assay [3] (both KCl and carbachol contracted tissues), the “effect on responses to retigabine in ileum” value is reported as “antagonized”.

These data come from US7015242B2, “Methods for treating hyperactive gastrointestinal motility” (Wyeth, priority 2001, dated 2006).
